Key:
Type in all cases: functional, cell-based
[1] = system: MCF7; experiment: Cytotoxicity against human MCF7 cells after 72 hrs by resazurin assay
[2] = system: MIA PaCa-2; experiment: Cytotoxicity against human MIAPaCa2 cells after 72 hrs by resazurin assay
[3] = system: HeLa; experiment: Cytotoxicity against human HeLa cells after 72 hrs by resazurin assay

Compound	IC50 ([1]; Homo sapiens, MCF7, 72 h) [µM]	IC50 ([2]; Homo sapiens, MIA PaCa-2, 72 h) [µM]	IC50 ([3]; Homo sapiens, HeLa, 72 h) [µM]	IC50 ([1]; mcf7) [µM]	IC50 ([2]; mia paca-2) [µM]	IC50 ([3]; hela) [µM]
CC(C)=CCC1=C(O)[C@@]2(C(=O)c3ccccc3)C(=O)[C@](CC=C(C)C)(C[C@H](CC=C(C)C)C2(C)C)C1=O	5.2	2.4	2.9			
CC(C)=CCC1=C(O)C2(CC=C(C)C)CC(CC=C(C)C)C(C)(C)C(C(=O)c3ccccc3)(C1=O)C2=O (single isomer, unassigned; (+))	6.5	3.4	3.9			
CC(C)=CCC1=C(O)C2(C(=O)c3ccccc3)CC(CC=C(C)C)C(C)(C)C(CC=C(C)C)(C1=O)C2=O (single isomer, unassigned; (+))	18.9	11.3	10.1			
CC(C)=CC[C@H]1C[C@]2(CC=C(C)C)C(=O)[C@@](CC=C(C)C)(C(=O)C(C(=O)c3ccccc3)=C2O)C1(C)C (stereo in doubt; (+)-4) [6-EPI-CLUSIANONE]	8.3	5.2	5.8			
CC(C)=CCC1=C(O)C2(CC=C(C)C)CC(CC=C(C)C)C(C)(C)C(C(=O)c3ccccc3)(C1=O)C2=O (stereo in doubt; (-)-3)				8	3.5	3.4
CC(C)=CC[C@H]1C[C@]2(CC=C(C)C)C(=O)[C@@](CC=C(C)C)(C(=O)C(C(=O)c3ccccc3)=C2O)C1(C)C (stereo in doubt; (-)-4) [6-EPI-CLUSIANONE]				5.7	3.8	3
CC(C)=CCC1=C(O)C2(C(=O)c3ccccc3)CC(CC=C(C)C)C(C)(C)C(CC=C(C)C)(C1=O)C2=O (stereo in doubt; (-)-5)				10.9	8.6	10.9
Nc1ccn([C@@H]2O[C@H](CO)[C@@H](O)C2(F)F)c(=O)n1 [GEMCITABINE]	0.06	0.06	0.05			
